Measurements published in patent US20050221328A1, “Inhibitors of inflammatory gene activity and cholesterol biosynthesis” (Wyeth, priority 2002, published 2005).

Columns and labels:
mouse liver [1] = test: EE induction of gene expression in the mouse liver (GeneChip); type: in vivo; conditions: 100 ug/kg/day EE sc 5 days;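 also: ovariectomized C57BL/6 mice, liver polyA RNA on Affymetrix murine 11K GeneChips, fold expression versus vehicle-pretreated PBS-injected mice set to 1.0, mean of two independent experiments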
Method: Ovariectomized C57BL/6 mice were pretreated by subcutaneous administration of either corn oil/ethanol vehicle or 100 ug/kg/day ethynylestradiol (EE) for 5 days. […] One hour later the livers were removed and polyA RNA was prepared. Global gene expression was determined by analysis using murine 11K GeneChips from Affymetrix. For each gene, the level of expression in animals receiving vehicle pretreatment plus PBS was defined as 1.0, with the expression levels in the mice receiving vehicle pretreatment±IL-1β or EE pretreatment±IL-1β defined relative to this. The results shown are the mean from two independent experiments.
To determine whether EE induction of any other gene could explain the inhibition of IL-1β gene inductions, the GeneChip results were analyzed for EE induction of gene expression.

[2] = test system: Fnk, JAB, LIX, bcl-3 and SHP; test: Liver expression of Fnk, JAB, LIX, bcl-3 and SHP by realtime PCR after estrogen receptor ligand pretreatment and IL-1β
Method: Referring to FIG. 3a, to distinguish these two mechanisms, the IL-1β fold induction of Fnk, JAB, LIX, and bcl-3 and the IL-1β fold repression of SHP was quantified in animals pretreated with vehicle (black bars) or 100 ug/kg/day EE (grey bars). Liver RNA levels of each gene (mean +/−SEM) were determined by realtime PCR of RNA from each individual animal.
Referring to FIGS. 4a, 4b, 4c, 4d and 4e, experiments were conducted to determine whether EE blocks IL-1β induction of gene expression by an estrogen receptor (ER) dependent mechanism. Estrogens can regulate gene expression by many mechanisms including ER independent pathways such as antioxidant mechanisms. […] Liver expression levels of Fnk, JAB, LIX, bcl-3 and SHP (mean +/−SEM) were determined by realtime PCR.
Referring to FIGS. 5a, 5b, 5c, 5d, and 5e, experiments were conducted to determine whether ERα is required for EE regulation of gene expression in the liver. To determine whether ERα or ERβ mediated the EE effects on IL-1β gene expression in the liver, C57BL/6 wild type mice, C57BL/6 ERαKO mice, or 129 ERβKO mice were pretreated with vehicle (black bars) or […] EE (gray bars) for 5 days followed by a 1 hour treatment with IL-1β. Liver expression levels of Fnk, JAB, LIX, bcl-3, and SHP (mean +/−SEM) were quantified by realtime PCR, with expression in animals receiving vehicle+PBS defined as 1.0.

Fnk, JAB, LIX, and bcl-3 = test: EE alteration of IL-1β induction of Fnk, JAB, LIX and bcl-3 in liver, spleen and lung; type: in vivo, mouse; conditions: EE pretreatment
Text: The requirement for ERα for EE activity in the liver is consistent with the nearly exclusive presence of ERα in the liver (as determined by realtime PCR, panel A). In contrast, the lung expresses relatively low levels of ERα and high levels of ERB. […] In contrast, EE pretreatment had no effect on IL-1β induction of Fnk, JAB, LIX, or bcl-3 in the lung.

mouse liver [3] = conditions: GeneChip, 1 h after 20 ug/kg IL-1β ip, pretreated 5 days with vehicle or 100 ug/kg/day EE sc, vehicle+PBS=1.0
Method: Experiments were conducted to evaluate IL-1β regulation of gene expression in the mouse liver. Ovariectomized C57BL/6 mice were pretreated by subcutaneous administration of either corn oil/ethanol vehicle or 100 ug/kg/day ethynylestradiol (EE) for 5 days. On the fifth day, the mice received an intraperitoneal injection of either PBS or 20 ug/kg IL-1β in PBS. One hour later the livers were removed and polyA RNA was prepared. Global gene expression was determined by analysis using murine 11K GeneChips from Affymetrix. For each gene, the level of expression in animals receiving vehicle pretreatment plus PBS was defined as 1.0, with the expression levels in the mice receiving vehicle pretreatment±IL-1β or EE pretreatment±IL-1β defined relative to this. The results shown are the mean from two independent experiments.
The fold regulation of each gene is plotted for animals receiving vehicle pretreatment x-axis) vs. animals receiving pretreatment with EE (y-axis). Genes with IL-1β induction unaffected by EE pretreatment would lie along the dotted diagonal.

[4] = mouse liver, EE treated mice vs vehicle treated mice
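For IL-1 Induction A20 (Tnfaip3) in this document: ovariectomized C57BL/6 mice, liver polyA RNA profiled, values are fold expression relative to vehicle plus PBS, averaged over two independent experiments.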
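For IL-1 Induction B94, TNF-α induced protein 2 (Tnfaip2) in this document: ovariectomized C57BL/6 mice, liver polyA RNA profiled, values are fold expression relative to vehicle plus PBS, averaged over two independent experiments.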
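For IL-1 Induction C/EBPδ (Cebpd) in this document: ovariectomized C57BL/6 mice, liver polyA RNA profiled, values are fold expression relative to vehicle plus PBS, averaged over two independent experiments.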
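For IL-1 Induction CD14 (Cd14) in this document: ovariectomized C57BL/6 mice, liver polyA RNA profiled, values are fold expression relative to vehicle plus PBS, averaged over two independent experiments.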

Compound: C#C[C@]1(O)CC[C@H]2[C@@H]3CCc4cc(O)ccc4[C@H]3CC[C@@]21C [EE, ethynylestradiol]
- EE Induction C1Qc (C1qc) (mouse liver [1]): 2.3
- EE Induction C1qB (C1qb) (mouse liver [1]): 2.8
- EE Induction CD53 (Cd53) (mouse liver [1]): 2.9
- EE Induction CD68 antigen (Cd68) (mouse liver [1]): 3.1
- EE Induction CD97 (Cd97) (mouse liver [1]): 6.0
- EE Induction Cytochrome P450, 17 (Cyp17) (mouse liver [1]): 32.3
- EE Induction F4/80 (Emr1) (mouse liver [1]): 3.1
- EE Induction H2A histone family, member X (H2afx) (mouse liver [1]): 5.1
- EE Induction Keratin complex 2, basic, gene 4 (Krt2-4) (mouse liver [1]): 38.0
- EE Induction apolipoprotein A-IV (Apoa4) (mouse liver [1]): 3.5
- EE Induction apolipoprotein C2 (Apoc2) (mouse liver [1]): 2.2
- EE Induction apoptosis inhibitory 6 (Api6) (mouse liver [1]): 3.3
- EE Induction cadherin 1 (Cdh1) (mouse liver [1]): 2.6
- EE Induction cathepsin S (Ctss) (mouse liver [1]): 4.0
- EE Induction cell division cycle 2 homolog A (Cdc2a) (mouse liver [1]): 4.6
- EE Induction colony stimulating factor 1 receptor (Csf1r) (mouse liver [1]): 2.8
- EE Induction creatine kinase B (Ckb) (mouse liver [1]): 13.0
- EE Induction cytochrome P450, 7b1 (Cyp7b1) (mouse liver [1]): 21.1
- EE Induction desmocollin 2 (Dsc2) (mouse liver [1]): 5.0
- EE Induction fatty acid binding protein 7, brain (Fabp7) (mouse liver [1]): 4.8
- EE Induction interferon activated gene 203 (lfi203) (mouse liver [1]): 2.5
- EE Induction interleukin 17 receptor (Il17r) (mouse liver [1]): 3.5
- EE Induction leukemia inhibitory factor receptor (Lifr) (mouse liver [1]): 5.1
- EE Induction lymphocyte antigen 86 (Ly86) (mouse liver [1]): 4.3
- EE Induction lysosomal thiol reductase IP30 precursor (IP30) (mouse liver [1]): 3.7
- EE Induction mannose receptor, C type 1 (Mrc1) (mouse liver [1]): 2.6
- EE Induction myo-inositol-1-phosphate synthase (aa221219) (mouse liver [1]): 167.1
- EE Induction properdin (Pfc) (mouse liver [1]): 2.9
- EE Induction prostaglandin D2 synthase (Ptgds) (mouse liver [1]): 72.8
- EE Induction proteinase 3 (Prtn3) (mouse liver [1]): 24.1
- EE Induction pyrroline-5-carboxylate synthetase (Pycs) (mouse liver [1]): 3.3
- EE Induction serum/glucocorticoid regulated kinase (Sgk) (mouse liver [1]): 4.5
- EE Induction signal transducer and activator of transcription 5A (Stat5a) (mouse liver [1]): 4.1
- EE Induction solute carrier family 11, member 1 (Slc11a1) (mouse liver [1]): 3.6
- EE Induction stathmin (Kist) (mouse liver [1]): 3.5
- EE Induction testosterone 16-alpha-hydroxylase (C-16-alpha) (Cyp2d9) (mouse liver [1]): 2.3
- EE Induction trefoil factor 3, intestinal (Tff3) (mouse liver [1]): 16.3
- EE Induction type llb Na/phosphate-cotransporter (Npt2b) (mouse liver [1]): 13.5
- EE inhibition of IL-1β regulation of Fnk, JAB, LIX, bcl-3, SHP in animals lacking ERβ vs wild type ([2]; 129 ERβKO mice vs C57BL/6 wild type, 10 ug/kg/day EE 5 days, IL-1β 1 hour): comparable
- effect on IL-1β regulation of Fnk, JAB, LIX, bcl-3, SHP in animals lacking ERα ([2]; C57BL/6 ERαKO mice, 10 ug/kg/day EE 5 days, IL-1β 1 hour): no effect
- effect on regulation of liver Fnk, JAB, LIX, bcl-3 and SHP expression vs IL-1β alone ([2]; mice, 100 ug/kg/day EE, 1 or 10 mg/kg/day E2, 30 mg/kg/day genistein, 5 mg/kg/day raloxifene, 10 mg/kg/day ICI182780, plus IL-1β): greatest effect
- IL-1 repression of SHP expression ([2]; mouse liver, realtime PCR, vehicle treated or 100 ug/kg/day EE treated animals): 85%
- IL-1 induction of bcl-3 ([2]; mouse liver, realtime PCR, vehicle treated or 100 ug/kg/day EE treated mice, IL-1 vs PBS): 5.2 fold
- IL-1β fold induction of Fnk, JAB, and LIX ([2]; mouse liver, 100 ug/kg/day EE pretreated vs vehicle): reduced
- IL-1β fold regulation for bcl-3 and SHP ([2]; mouse liver, 100 ug/kg/day EE treated vs vehicle): the same
- inhibition of IL-1β induction of Fnk, JAB, LIX and bcl-3 ([2]; mouse liver, 100 ug/kg/day EE, 30 mg/kg/day genistein, 5 mg/kg/day raloxifene): inhibited
- basal expression of SHP [2, 4]: increased
- basal expression of bcl-3 [2, 4]: repressed
- IL-1β induction of Fnk, JAB, LIX, and bcl-3 in the liver (Fnk, JAB, LIX, and bcl-3; liver): significantly blocked
- IL-1β induction of Fnk, JAB, LIX, or bcl-3 in the lung (Fnk, JAB, LIX, and bcl-3; lung): no effect
- IL-1β induction of Fnk and JAB in the spleen (Fnk, JAB, LIX, and bcl-3; spleen): blocked
- IL-1 Induction A20 (Tnfaip3) (mouse liver [3]): 11.4 fold
- IL-1 Induction B94, TNF-α induced protein 2 (Tnfaip2) (mouse liver [3]): 17.7 fold
- IL-1 Induction C/EBPδ (Cebpd) (mouse liver [3]): 5.2 fold
- IL-1 Induction CD14 (Cd14) (mouse liver [3]): 6.1 fold
- IL-1 Induction CD83 (Cd83) (mouse liver [3]): 4.0 fold
- IL-1 Induction E-selectin (Sele) (mouse liver [3]): 5.2 fold
- IL-1 Induction Ets transcription factor ELF3 (Elf3) (mouse liver [3]): 6.7 fold
- IL-1 Induction G0/G1 switch gene 2 (G0s2) (mouse liver [3]): 0.05 fold
- IL-1 Induction GTP binding protein IRG-47 (lfi47) (mouse liver [3]): 3.2 fold
- IL-1 Induction Gadd45 (Gadd45a) (mouse liver [3]): 3.6 fold
- IL-1 Induction Glvr-1 (Slc20a1) (mouse liver [3]): 5.8 fold
- IL-1 Induction H-2Ld (H-2L) (mouse liver [3]): 4.1 fold
- IL-1 Induction ICAM-1 (lcam1) (mouse liver [3]): 38.4 fold
- IL-1 Induction IL-1m (Il1m) (mouse liver [3]): 18.9 fold
- IL-1 Induction IL-15 receptor (Il15ra) (mouse liver [3]): 2.7 fold
- IL-1 Induction IxBa (Nfkbia) (mouse liver [3]): 7.4 fold
- IL-1 Induction JAB, suppressor of cytokine signaling 1 (Cish1) (mouse liver [3]): 1.4 fold
- IL-1 Induction JE/MCP-1 (Scya2) (mouse liver [3]): 64.4 fold
- IL-1 Induction LIX (Scyb5) (mouse liver [3]): 2.9 fold
- IL-1 Induction LPS inducible C—C chemokine receptor related (AF030185) (mouse liver [3]): 5.6 fold
- IL-1 Induction M-CSF (Csf1) (mouse liver [3]): 23.9 fold
- IL-1 Induction MARCKS-like macrophage protein (Mlp) (mouse liver [3]): 5.1 fold
- IL-1 Induction MIG (Scyb9) (mouse liver [3]): 5.4 fold
- IL-1 Induction MIP2 (Scyb2) (mouse liver [3]): 91.1 fold
- IL-1 Induction MIP-1 gamma (Scya9) (mouse liver [3]): 1.9 fold
- IL-1 Induction MyD118 (GADD45b) (mouse liver [3]): 12.9 fold
- IL-1 Induction NF-E2 related factor 2 (NRF2) (Nfe212) (mouse liver [3]): 7.2 fold
- IL-1 Induction NF-kappa-B p105 (Nfkb1) (mouse liver [3]): 6.2 fold
- IL-1 Induction NFkB p100 (Nfkb2) (mouse liver [3]): 2.8 fold
- IL-1 Induction PAI-1 (Serpine1) (mouse liver [3]): 40.8 fold
- IL-1 Induction PDGF-induced KC (Gro1) (mouse liver [3]): 6.1 fold
- IL-1 Induction PIM-1 protein kinase (Pim1) (mouse liver [3]): 2.1 fold
- IL-1 Induction SHP (NrGb2) (mouse liver [3]): 0.53 fold
- IL-1 Induction T-cell death associated gene (Tdag) (mouse liver [3]): 2.2 fold
- IL-1 Induction T-cell specific GTPase (Tgtp) (mouse liver [3]): 2.8 fold
- IL-1 Induction TGFB inducible early growth response (Tieg) (mouse liver [3]): 0.38 fold
- IL-1 Induction Ubiquitin-conjugating E2 enzyme variant 2 (Ube2v2) (mouse liver [3]): 5.3 fold
- IL-1 Induction VCAM-1 (Vcam1) (mouse liver [3]): 12.5 fold
- IL-1 Induction adrenergic receptor, beta 2 (Adrb2) (mouse liver [3]): 3.1 fold
- IL-1 Induction adrenomedullin (Adm) (mouse liver [3]): 10.0 fold
- IL-1 Induction apoptosis inhibitor 1 (Birc2) (mouse liver [3]): 8.9 fold
- IL-1 Induction apoptosis inhibitor 2 (Birc3) (mouse liver [3]): 4.3 fold
- IL-1 Induction bcl-3 (Bcl3) (mouse liver [3]): 6.2 fold
- IL-1 Induction c-JUN (Jun) (mouse liver [3]): 5.6 fold
- IL-1 Induction calcium binding protein A6 (S100a6) (mouse liver [3]): 2.6 fold
- IL-1 Induction calgranulin A (S100A8) (mouse liver [3]): 10.7 fold
- IL-1 Induction calgranulin B (S100a9) (mouse liver [3]): 25.7 fold
- IL-1 Induction cytokine-inducible kinase Fnk (Cnk) (mouse liver [3]): 0.3 fold
- IL-1 Induction gly96 (ler3) (mouse liver [3]): 43.8 fold
- IL-1 Induction growth factor receptor bound protein 7 (Grb7) (mouse liver [3]): 0.13 fold
- IL-1 Induction guanylate nucleotide binding protein 2 (Gbp2) (mouse liver [3]): 3.6 fold
- IL-1 Induction helix-loop-helix factor HES-1 (Hes1) (mouse liver [3]): 0.25 fold
- IL-1 Induction heme oxygenase 1 (Hmox1) (mouse liver [3]): 3.0 fold
- IL-1 Induction hsp68 (Hsp70-3) (mouse liver [3]): 1.5 fold
- IL-1 Induction inducible 6-phosphofructo-2-kinase (AA163244) (mouse liver [3]): 3.0 fold
- IL-1 Induction inhibitor of DNA binding 3 (idb3) (mouse liver [3]): 3.1 fold
- IL-1 Induction insulin-like growth factor binding protein 1 (lgfbp1) (mouse liver [3]): 4.3 fold
- IL-1 Induction intercrine (Scya7) (mouse liver [3]): 11.4 fold
- IL-1 Induction interferon regulatory factor 1 (Irf1) (mouse liver [3]): 9.0 fold
- IL-1 Induction junB (Junb) (mouse liver [3]): 2.6 fold
- IL-1 Induction lipocalin 2 (Lcn2) (mouse liver [3]): 2.9 fold
- IL-1 Induction lkB-beta (Nfkbib) (mouse liver [3]): 2.8 fold
- IL-1 Induction m-myc (Myc) (mouse liver [3]): 3.4 fold
- IL-1 Induction macrophage interferon inducible protein 10 (Scyb10) (mouse liver [3]): 39.3 fold
- IL-1 Induction metalloproteinase-disintegrin (Adamts1) (mouse liver [3]): 4.6 fold
- IL-1 Induction molecule possessing ankyrin-repeats induced by LPS (aa614971) (mouse liver [3]): 22.7 fold
- IL-1 Induction myocyte-enriched calcineurin interactin protein (Dscrl) (mouse liver [3]): 9.3 fold
- IL-1 Induction noctumin (Ccr4) (mouse liver [3]): 9.0 fold
- IL-1 Induction p65 NF-kappa B (Rela) (mouse liver [3]): 2.4 fold
- IL-1 Induction phospholipid scramblase 1 (Plscr1) (mouse liver [3]): 5.6 fold
- IL-1 Induction protein tyrosine phosphatase 4a1 (Ptp4a1) (mouse liver [3]): 1.2 fold
- IL-1 Induction regulator for ribosome resistance homolog (Rrr) (mouse liver [3]): 3.3 fold
- IL-1 Induction relB (Relb) (mouse liver [3]): 7.9 fold
- IL-1 Induction rhoB (Arhb) (mouse liver [3]): 18.5 fold
- IL-1 Induction serum amyloid A 3 (Saa3) (mouse liver [3]): 36.0 fold
- IL-1 Induction serum amyloid A 4 (Saa4) (mouse liver [3]): 1.9 fold
- IL-1 Induction suppressor of cytokine signaling 2 (Cish2) (mouse liver [3]): 1.7 fold
- IL-1 Induction suppressor of cytokine signaling 3 (Cish3) (mouse liver [3]): 6.0 fold
- IL-1 Induction transglutaminase (Tgm2) (mouse liver [3]): 8.0 fold
